{
  "source": "paper PMC5218480",
  "about": "(PLoS ONE, 2017)",
  "tested_on": "MV-4-11 cells",
  "experiment": "Gene expression microarray analysis (Affymetrix PrimeView) and GSEA",
  "type": "cell-based, human",
  "parameters": "RFU PODN (11730768_x_at) / Fold change /veh PODN (11730768_x_at) / RFU LINC00158 (11744669_a_at) / Fold change /veh LINC00158 (11744669_a_at) / RFU DUSP10 (11751237_a_at) / Fold change /veh DUSP10 (11751237_a_at) / RFU ID3 (11757404_x_at) / Fold change /veh ID3 (11757404_x_at) / RFU PLEKHG5 (11737974_s_at) / Fold change /veh PLEKHG5 (11737974_s_at) / RFU LRRC4B (11730491_at) / Fold change /veh LRRC4B (11730491_at) / RFU GIMAP4 (11747438_a_at) / Fold change /veh GIMAP4 (11747438_a_at) / RFU KRT8 (11758183_x_at) / Fold change /veh KRT8 (11758183_x_at) / RFU CNN1 (11734310_a_at) / Fold change /veh CNN1 (11734310_a_at) / RFU VPS37D (11726825_at) / Fold change /veh VPS37D (11726825_at) / RFU C10orf10 (11716522_x_at) / Fold change /veh C10orf10 (11716522_x_at) / RFU KIR2DL2 /// KIR2DL4 /// KIR2DL5A /// KIR2DL5B /// KIR2DS1 /// KIR2DS2 /// KIR2DS3 /// KIR2DS4 /// KIR3DL3 /// KIR3DL3 /// KIR3DS1 (11738374_at) / Fold change /veh KIR2DL2 /// KIR2DL4 /// KIR2DL5A /// KIR2DL5B /// KIR2DS1 /// KIR2DS2 /// KIR2DS3 /// KIR2DS4 /// KIR3DL3 /// KIR3DL3 /// KIR3DS1 (11738374_at) / RFU C1QL1 (11718748_at) / Fold change /veh C1QL1 (11718748_at) / RFU TMPRSS4 (11747572_a_at) / Fold change /veh TMPRSS4 (11747572_a_at) / RFU HAMP (11756126_x_at) / Fold change /veh HAMP (11756126_x_at) / RFU RNFT2 (11725882_a_at) / Fold change /veh RNFT2 (11725882_a_at) / RFU NR4A2 (11747474_a_at) / Fold change /veh NR4A2 (11747474_a_at) / RFU ABCC12 (11746883_a_at) / Fold change /veh ABCC12 (11746883_a_at) / RFU TMEM136 (11760407_x_at) / Fold change /veh TMEM136 (11760407_x_at) / RFU CLDN22 /// WWC2 (11732394_at) / Fold change /veh CLDN22 /// WWC2 (11732394_at) / RFU HLA-DPB1 (11760878_x_at) / Fold change /veh HLA-DPB1 (11760878_x_at) / RFU SPINT1 (11716480_a_at) / Fold change /veh SPINT1 (11716480_a_at) / RFU GAP43 (11754022_s_at) / Fold change /veh GAP43 (11754022_s_at) / RFU A4GNT (11735810_at) / Fold change /veh A4GNT (11735810_at) / RFU PRB3 (11715151_x_at) / Fold change /veh PRB3 (11715151_x_at) / RFU TUBB4B (11761932_at) / Fold change /veh TUBB4B (11761932_at) / RFU CAPN14 (11732068_a_at) / Fold change /veh CAPN14 (11732068_a_at) / RFU TMCC2 (11721928_a_at) / Fold change /veh TMCC2 (11721928_a_at) / RFU IRGQ (11745062_a_at) / Fold change /veh IRGQ (11745062_a_at) / RFU FAM174B (11720279_a_at) / Fold change /veh FAM174B (11720279_a_at) / RFU TMPRSS4 (11748680_a_at) / Fold change /veh TMPRSS4 (11748680_a_at) / RFU FAM212B (11763350_a_at) / Fold change /veh FAM212B (11763350_a_at) / RFU PLEKHG5 (11743358_a_at) / Fold change /veh PLEKHG5 (11743358_a_at) / RFU ZSCAN30 (11745921_a_at) / Fold change /veh ZSCAN30 (11745921_a_at) / RFU CMKLR1 (11741424_a_at) / Fold change /veh CMKLR1 (11741424_a_at) / RFU LOC101060620 /// MAPK8IP1 (11723275_at) / Fold change /veh LOC101060620 /// MAPK8IP1 (11723275_at) / RFU SPTSSB (11747773_x_at) / Fold change /veh SPTSSB (11747773_x_at) / RFU PRSS12 (11739890_at) / Fold change /veh PRSS12 (11739890_at) / RFU BIN1 (11741810_x_at) / Fold change /veh BIN1 (11741810_x_at) / RFU WNT11 (11732464_a_at) / Fold change /veh WNT11 (11732464_a_at) / RFU C10orf10 (11716521_a_at) / Fold change /veh C10orf10 (11716521_a_at) / RFU C5orf56 (11738089_at) / Fold change /veh C5orf56 (11738089_at) / RFU CYB561 (11721691_x_at) / Fold change /veh CYB561 (11721691_x_at) / RFU ANKRD19P (11752326_a_at) / Fold change /veh ANKRD19P (11752326_a_at) / RFU OR2T12 /// OR2T33 /// OR2T8 (11738714_s_at) / Fold change /veh OR2T12 /// OR2T33 /// OR2T8 (11738714_s_at) / RFU VCAN (11748164_a_at) / Fold change /veh VCAN (11748164_a_at) / RFU JSRP1 (11732532_at) / Fold change /veh JSRP1 (11732532_at) / RFU KRTAP10-11 (11738290_x_at) / Fold change /veh KRTAP10-11 (11738290_x_at) / RFU MYO3A (11730013_a_at) / Fold change /veh MYO3A (11730013_a_at) / RFU EBF3 (11725865_a_at) / Fold change /veh EBF3 (11725865_a_at) / RFU CAMK2N1 (11719241_x_at) / Fold change /veh CAMK2N1 (11719241_x_at) / RFU C5orf56 (11738088_a_at) / Fold change /veh C5orf56 (11738088_a_at) / RFU OLFML3 (11715873_a_at) / Fold change /veh OLFML3 (11715873_a_at) / RFU LOC100653217 /// NTM (11731650_a_at) / Fold change /veh LOC100653217 /// NTM (11731650_a_at) / RFU MAPK11 (11762145_a_at) / Fold change /veh MAPK11 (11762145_a_at) / RFU FIZ1 (11724087_x_at) / Fold change /veh FIZ1 (11724087_x_at) / RFU OASL (11726364_x_at) / Fold change /veh OASL (11726364_x_at) / RFU SOX15 (11748057_x_at) / Fold change /veh SOX15 (11748057_x_at) / RFU CD79A (11719716_a_at) / Fold change /veh CD79A (11719716_a_at) / RFU HIST1H1D (11736915_at) / Fold change /veh HIST1H1D (11736915_at) / RFU CASKIN2 (11723855_a_at) / Fold change /veh CASKIN2 (11723855_a_at) / RFU LOC730098 (11760151_x_at) / Fold change /veh LOC730098 (11760151_x_at) / RFU OR4N2 (11742367_at) / Fold change /veh OR4N2 (11742367_at) / RFU PRRT2 (11749266_a_at) / Fold change /veh PRRT2 (11749266_a_at) / RFU SNX32 (11753110_a_at) / Fold change /veh SNX32 (11753110_a_at) / RFU CDHR5 (11726645_a_at) / Fold change /veh CDHR5 (11726645_a_at) / RFU RCAN1 (11760418_a_at) / Fold change /veh RCAN1 (11760418_a_at) / RFU FAM167A (11723789_a_at) / Fold change /veh FAM167A (11723789_a_at) / RFU FAM26E (11764081_at) / Fold change /veh FAM26E (11764081_at) / RFU ISYNA1 (11749810_s_at) / Fold change /veh ISYNA1 (11749810_s_at) / RFU ACY1 (11761880_at) / Fold change /veh ACY1 (11761880_at) / RFU 11764098_at / Fold change /veh 11764098_at / RFU SAMD14 (11745864_x_at) / Fold change /veh SAMD14 (11745864_x_at) / RFU NPB (11741838_a_at) / Fold change /veh NPB (11741838_a_at) / RFU TMPRSS6 (11731388_a_at) / Fold change /veh TMPRSS6 (11731388_a_at) / RFU KRTAP10-2 (11738614_at) / Fold change /veh KRTAP10-2 (11738614_at) / RFU ARHGAP8 /// PRR5-ARHGAP8 (11727945_x_at) / Fold change /veh ARHGAP8 /// PRR5-ARHGAP8 (11727945_x_at) / RFU KRTAP5-7 /// NADSYN1 (11734609_at) / Fold change /veh KRTAP5-7 /// NADSYN1 (11734609_at) / RFU RASL12 (11751679_a_at) / Fold change /veh RASL12 (11751679_a_at) / RFU CDKN2B (11736163_a_at) / Fold change /veh CDKN2B (11736163_a_at) / RFU PRF1 (11729649_at) / Fold change /veh PRF1 (11729649_at) / RFU, ZNF638 /// ZNF638-IT1 / Fold change vs veh, ZNF638 /// ZNF638-IT1 / RFU, PANK3 / Fold change vs veh, PANK3 / RFU, SH3YL1 / Fold change vs veh, SH3YL1 / RFU, ZEB2 / Fold change vs veh, ZEB2 / RFU, NRIP1 / Fold change vs veh, NRIP1 / RFU, PTTG1IP / Fold change vs veh, PTTG1IP / RFU, CAPN2 / Fold change vs veh, CAPN2 / RFU, MED14 / Fold change vs veh, MED14 / RFU, SNORA58 / Fold change vs veh, SNORA58 / RFU, C1orf63 / Fold change vs veh, C1orf63 / RFU, LRRFIP1 / Fold change vs veh, LRRFIP1 / RFU, NDUFAF7 / Fold change vs veh, NDUFAF7 / RFU, SLC12A2 / Fold change vs veh, SLC12A2 / RFU, IBTK / Fold change vs veh, IBTK / RFU, ESF1 / Fold change vs veh, ESF1 / Fold change vs veh, TMEM50B / RFU, TAOK1 / Fold change vs veh, TAOK1 / RFU, ACBD3 / Fold change vs veh, ACBD3 / RFU, TMA16 / Fold change vs veh, TMA16 / RFU, RWDD3 / Fold change vs veh, RWDD3 / RFU, BCAT1 / Fold change vs veh, BCAT1 / RFU, EDEM3 / Fold change vs veh, EDEM3 / RFU, TMEM33 / Fold change vs veh, TMEM33 / RFU, WDR75 / Fold change vs veh, WDR75 / RFU, AHCTF1 / Fold change vs veh, AHCTF1 / RFU, TFRC / Fold change vs veh, TFRC / RFU, ZDHHC17 / Fold change vs veh, ZDHHC17 / RFU, NOM1 / Fold change vs veh, NOM1 / RFU, ARL8B / Fold change vs veh, ARL8B / RFU, ZBTB11 / Fold change vs veh, ZBTB11 / RFU, TAMM41 / Fold change vs veh, TAMM41 / RFU, KIAA1704 /// LOC100996395 / Fold change vs veh, KIAA1704 /// LOC100996395 / RFU, ING1 / Fold change vs veh, ING1 / RFU, TRMT61B / Fold change vs veh, TRMT61B / RFU, FUBP3 / Fold change vs veh, FUBP3 / RFU, TP53 / Fold change vs veh, TP53 / RFU, TNKS2 / Fold change vs veh, TNKS2 / RFU, ZFP14 / Fold change vs veh, ZFP14 / RFU, ACTR2 / Fold change vs veh, ACTR2 / RFU, PPP3R1 / Fold change vs veh, PPP3R1 / RFU, PIK3R1 / Fold change vs veh, PIK3R1 / RFU, HNRNPA1 / Fold change vs veh, HNRNPA1 / RFU, RNF170 / Fold change vs veh, RNF170 / RFU, ZNF28 / Fold change vs veh, ZNF28 / RFU, RNGTT / Fold change vs veh, RNGTT / RFU, OGT / Fold change vs veh, OGT / RFU, BRD1 / Fold change vs veh, BRD1 / RFU, MARS / Fold change vs veh, MARS / RFU, ZNF655 / Fold change vs veh, ZNF655 / RFU, FAHD1 / Fold change vs veh, FAHD1 / RFU, BDP1 / Fold change vs veh, BDP1 / RFU, LRRCC1 / Fold change vs veh, LRRCC1 / RFU, ARID1A / Fold change vs veh, ARID1A / RFU, ZNF146 / Fold change vs veh, ZNF146 / RFU, ZNF330 / Fold change vs veh, ZNF330 / RFU, GPN3 / Fold change vs veh, GPN3 / RFU, C9orf123 / Fold change vs veh, C9orf123 / RFU, N4BP2L2 / Fold change vs veh, N4BP2L2 / RFU, ARFIP1 / Fold change vs veh, ARFIP1 / RFU, FAM179B / Fold change vs veh, FAM179B / RFU, BCL10 / Fold change vs veh, BCL10 / RFU, UHRF1BP1L / Fold change vs veh, UHRF1BP1L / RFU, BET1 / Fold change vs veh, BET1 / RFU, CNOT2 / Fold change vs veh, CNOT2 / RFU, ZNF268 / Fold change vs veh, ZNF268 / Fold change vs veh, ZNF507 / RFU, DGCR2 / Fold change vs veh, DGCR2 / RFU, WDSUB1 / Fold change vs veh, WDSUB1 / Fold change vs veh, HSP90B1 /// MIR3652 / RFU, ADSS / Fold change vs veh, ADSS / RFU, GK / Fold change vs veh, GK / RFU, ZNF148 / Fold change vs veh, ZNF148 / RFU, TAF9 / Fold change vs veh, TAF9 / RFU, SLC1A5 / Fold change vs veh, SLC1A5 / RFU, SLMO2 / Fold change vs veh, SLMO2 / RFU, ABCC4 / Fold change vs veh, ABCC4 / RFU, LOC101060439 /// RAP1B / Fold change vs veh, LOC101060439 /// RAP1B / RFU, RFX7 / Fold change vs veh, RFX7 / RFU, GTPBP10 / Fold change vs veh, GTPBP10 / RFU, CNEP1R1 / Fold change vs veh, CNEP1R1 / RFU, BIVM-ERCC5 /// ERCC5 / Fold change vs veh, BIVM-ERCC5 /// ERCC5 / RFU, ILF3 / Fold change vs veh, ILF3 / RFU 11762660_at / Fold change /veh 11762660_at / RFU VCAN (11757783_s_at) / Fold change /veh VCAN (11757783_s_at) / RFU DDX43 (11728927_at) / Fold change /veh DDX43 (11728927_at) / RFU KRT8 (11758188_x_at) / Fold change /veh KRT8 (11758188_x_at) / RFU NKD1 (11759106_at) / Fold change /veh NKD1 (11759106_at) / RFU SRD5A1 (11742802_a_at) / Fold change /veh SRD5A1 (11742802_a_at) / RFU TPSAB1 /// TPSB2 (11721975_s_at) / Fold change /veh TPSAB1 /// TPSB2 (11721975_s_at) / RFU GSTM3 (11746129_a_at) / Fold change /veh GSTM3 (11746129_a_at) / RFU IL23R (11737362_x_at) / Fold change /veh IL23R (11737362_x_at) / RFU TMEM51 (11727254_a_at) / Fold change /veh TMEM51 (11727254_a_at) / RFU PIWIL2 (11732686_x_at) / Fold change /veh PIWIL2 (11732686_x_at) / RFU ORM1 (11744905_x_at) / Fold change /veh ORM1 (11744905_x_at) / RFU CCDC152 (11743942_at) / Fold change /veh CCDC152 (11743942_at) / RFU ECM1 (11717891_a_at) / Fold change /veh ECM1 (11717891_a_at) / RFU IL23R (11748794_a_at) / Fold change /veh IL23R (11748794_a_at) / RFU TNFAIP8L3 (11732012_x_at) / Fold change /veh TNFAIP8L3 (11732012_x_at) / RFU MBOAT4 (11741988_at) / Fold change /veh MBOAT4 (11741988_at) / RFU 11764193_at / Fold change /veh 11764193_at / RFU TMEM53 (11763286_at) / Fold change /veh TMEM53 (11763286_at) / RFU MAGEB2 (11727129_at) / Fold change /veh MAGEB2 (11727129_at) / RFU TMEM200A (11744735_a_at) / Fold change /veh TMEM200A (11744735_a_at) / RFU CCDC152 (11751479_a_at) / Fold change /veh CCDC152 (11751479_a_at) / RFU FAM211A (11726209_a_at) / Fold change /veh FAM211A (11726209_a_at) / RFU RGS16 (11746705_a_at) / Fold change /veh RGS16 (11746705_a_at) / RFU VCAN (11755009_s_at) / Fold change /veh VCAN (11755009_s_at) / RFU RHOB (11743442_s_at) / Fold change /veh RHOB (11743442_s_at) / RFU RGS16 (11720943_a_at) / Fold change /veh RGS16 (11720943_a_at) / RFU RGS16 (11720944_at) / Fold change /veh RGS16 (11720944_at) / RFU, VPS4B / Fold change vs veh, VPS4B / RFU, CREB1 / Fold change vs veh, CREB1 / RFU, DNAJC13 / Fold change vs veh, DNAJC13 / RFU, GNAQ / Fold change vs veh, GNAQ / RFU, CDK5R1 / Fold change vs veh, CDK5R1 / RFU, ZRANB3 / Fold change vs veh, ZRANB3 / RFU, CUL4A / Fold change vs veh, CUL4A / RFU, CCNY / Fold change vs veh, CCNY / RFU, UFL1 / Fold change vs veh, UFL1 / RFU, COG3 / Fold change vs veh, COG3 / RFU, DIAPH2 / Fold change vs veh, DIAPH2 / RFU, SKA2 / Fold change vs veh, SKA2 / RFU, AFF3 / Fold change vs veh, AFF3 / RFU, LMF1 / Fold change vs veh, LMF1 / RFU, IPO11 / Fold change vs veh, IPO11 / RFU, DFFB / Fold change vs veh, DFFB / RFU, FOXP1 / Fold change vs veh, FOXP1 / RFU, CARD8 / Fold change vs veh, CARD8 / RFU, STRN3 / Fold change vs veh, STRN3 / RFU, ADK / Fold change vs veh, ADK / RFU, RASSF2 / Fold change vs veh, RASSF2 / RFU, WIPF1 / Fold change vs veh, WIPF1 / RFU, LARP1B / Fold change vs veh, LARP1B / RFU, RASA1 / Fold change vs veh, RASA1 / RFU, RB1 / Fold change vs veh, RB1 / RFU, PPFIA1 / Fold change vs veh, PPFIA1 / RFU, MAT2A / Fold change vs veh, MAT2A / RFU, CCT5 / Fold change vs veh, CCT5 / RFU, WDR92 / Fold change vs veh, WDR92 / RFU, CUX1 / Fold change vs veh, CUX1 / RFU, TTC7A / Fold change vs veh, TTC7A / RFU, TMEM135 / Fold change vs veh, TMEM135 / RFU, DEPTOR / Fold change vs veh, DEPTOR / RFU, CPM / Fold change vs veh, CPM / RFU, DNAJB6 / Fold change vs veh, DNAJB6 / RFU, CACNA2D3 / Fold change vs veh, CACNA2D3 / RFU, DTX4 / Fold change vs veh, DTX4 / RFU, TFCP2 / Fold change vs veh, TFCP2 / RFU, GMCL1 /// GMCL1P1 / Fold change vs veh, GMCL1 /// GMCL1P1 / RFU, AEBP2 / Fold change vs veh, AEBP2 / RFU, SNHG1 /// SNORD22 /// SNORD25 /// SNORD26 /// SNORD27 /// SNORD28 /// SNORD29 /// SNORD31 / Fold change vs veh, SNHG1 /// SNORD22 /// SNORD25 /// SNORD26 /// SNORD27 /// SNORD28 /// SNORD29 /// SNORD31 / Fold change (Aza/veh), C12orf56 (ProbeSet 11735607_a_at) / Fold change (ACY-1035/veh), C12orf56 (ProbeSet 11735607_a_at) / Fold change (Aza/veh), FGFR1OP (ProbeSet 11751329_s_at) / Fold change (ACY-1035/veh), FGFR1OP (ProbeSet 11751329_s_at) / Fold change (Aza/veh), VPS36 (ProbeSet 11739960_a_at) / Fold change (ACY-1035/veh), VPS36 (ProbeSet 11739960_a_at) / RFU SYPL1 (11715823_x_at) / Fold change /veh SYPL1 (11715823_x_at) / RFU IGFBP7 (11715501_s_at) / Fold change /veh IGFBP7 (11715501_s_at) / RFU REEP3 (11722064_at) / Fold change /veh REEP3 (11722064_at) / RFU IGLL1 (11728026_x_at) / Fold change /veh IGLL1 (11728026_x_at): dose or concentration left out as unconfirmed",
  "settings": "MV-4-11 cells, 48 hours",
  "data": [
    {"compound": "Nc1ccc(-c2cccs2)cc1NC(=O)c1ccc2c(c1)cc(C1CC1)n2CCN1CCOCC1", "note": "[ACY-1035]", "values": [
      {"measurement": "RFU HLA-DPB1 (11760878_x_at)", "value": 21.61, "unit": "RFU"}
    ]}
  ]
}
